Laboratory results taken from PubChem BioAssay AID1963871 (Molecular Pharmacology Branch, DTP, NCI, 2024).

Tested on: KRAS-mutant PDC multicell tumor spheroid viability
Experiment: Anticancer human tumor 521955-158-R2-J5-PDC patient-derived pancreatic carcinoma cell line growth inhibition [KRAS2]
Conditions: for IC50: curve of first compound; for viability, T/C: stronger effect = lower value
In short: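 Combination screen of spheroid viability in tumor-cell co-cultures with endothelial (HUVEC) and mesenchymal stem cell stroma. Each agent was tested in half-log dilutions, topping at clinical Cmax or at 10 microM without a known Cmax.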

[1] = second compound 0.0316 µM, first compound 0.0316 µM
[2] = second compound 0.0316 µM, first compound 0.1 µM
[3] = second compound 0.0316 µM, first compound 0.316 µM
[4] = second compound 0.0316 µM, first compound 1 µM
[5] = second compound 0.0316 µM, first compound 3.16 µM
[6] = second compound 0.0316 µM, first compound 10 µM
[7] = second compound 0.1 µM, first compound 0.0316 µM
[8] = second compound 0.1 µM, first compound 0.1 µM
[9] = second compound 0.1 µM, first compound 0.316 µM
[10] = second compound 0.1 µM, first compound 1 µM
[11] = second compound 0.1 µM, first compound 3.16 µM
[12] = second compound 0.1 µM, first compound 10 µM
[13] = second compound 0.316 µM, first compound 0.0316 µM
[14] = second compound 0.316 µM, first compound 0.1 µM
[15] = second compound 0.316 µM, first compound 0.316 µM
[16] = second compound 0.316 µM, first compound 1 µM
[17] = second compound 0.316 µM, first compound 3.16 µM
[18] = second compound 0.316 µM, first compound 10 µM
[19] = second compound 1 µM, first compound 0.0316 µM
[20] = second compound 1 µM, first compound 0.1 µM
[21] = second compound 1 µM, first compound 0.316 µM
[22] = second compound 1 µM, first compound 1 µM
[23] = second compound 1 µM, first compound 3.16 µM
[24] = second compound 1 µM, first compound 10 µM
[25] = second compound 3.16 µM, first compound 0.0316 µM
[26] = second compound 3.16 µM, first compound 0.1 µM
[27] = second compound 3.16 µM, first compound 0.316 µM
[28] = second compound 3.16 µM, first compound 1 µM
[29] = second compound 3.16 µM, first compound 3.16 µM
[30] = second compound 3.16 µM, first compound 10 µM
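Further: viability read after seven days of drug exposure.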

| Structure (SMILES) | IC50 (second compound 0.0316 µM) [nM] | IC50 (second compound 0.1 µM) [nM] | IC50 (second compound 0.316 µM) [nM] | IC50 (second compound 1 µM) [nM] | IC50 (second compound 3.16 µM) [nM] | viability, T/C [1] [%] | viability, T/C [2] [%] | viability, T/C [3] [%] | viability, T/C [4] [%] | viability, T/C [5] [%] | viability, T/C [6] [%] | viability, T/C [7] [%] | viability, T/C [8] [%] | viability, T/C [9] [%] | viability, T/C [10] [%] | viability, T/C [11] [%] | viability, T/C [12] [%] | viability, T/C [13] [%] | viability, T/C [14] [%] | viability, T/C [15] [%] | other results |
| --- | --- | --- | --- | --- | --- | --- | --- | --- | --- | --- | --- | --- | --- | --- | --- | --- | --- | --- | --- | --- | --- |
| COc1cc(Nc2ncc3c(n2)-c2ccc(Cl)cc2C(c2c(F)cccc2OC)=NC3)ccc1C(=O)O + C=CC(=O)N1CCN(c2nc(OCC3CCCN3C)nc3c2CCN(c2cccc4cccc(C)c24)C3)CC1CC#N | < 31.6 | < 31.6 | < 31.6 | < 31.6 | < 31.6 | 41.5 | 33.7 | 50.5 | 46.2 | 38.5 | 40.5 | 51.1 | 28.1 | 38.4 | 36.3 | 38.9 | 38.2 | 48.5 | 27.2 | 31.6 | viability, T/C [16]: 38.8%; viability, T/C [17]: 33.8%; viability, T/C [18]: 42.2%; viability, T/C [19]: 28.8%; viability, T/C [20]: 28.7%; viability, T/C [21]: 29.1%; viability, T/C [22]: 27.7%; viability, T/C [23]: 26.9%; viability, T/C [24]: 32%; viability, T/C [25]: 1.52%; viability, T/C [26]: 1.29%; viability, T/C [27]: 0.17%; viability, T/C [28]: 6.1%; viability, T/C [29]: 1.44%; viability, T/C [30]: 0.25% |
| COc1cc2nccc(Oc3ccc(NC(=O)C4(C(=O)Nc5ccc(F)cc5)CC4)cc3)c2cc1OC + C=CC(=O)N1CCN(c2nc(OCC3CCCN3C)nc3c2CCN(c2cccc4cccc(C)c24)C3)CC1CC#N | 8200 | 7660 | 6600 | 2680 | < 31.6 | 111 | 112 | 126 | 124 | 94.6 | 40.7 | 105 | 108 | 118 | 116 | 94.1 | 36.7 | 89.9 | 113 | 108 | viability, T/C [16]: 97.9%; viability, T/C [17]: 82.7%; viability, T/C [18]: 31.7%; viability, T/C [19]: 86.2%; viability, T/C [20]: 95%; viability, T/C [21]: 89.7%; viability, T/C [22]: 81.9%; viability, T/C [23]: 44.7%; viability, T/C [24]: 14.9%; viability, T/C [25]: 19.4%; viability, T/C [26]: 26.7%; viability, T/C [27]: 17.7%; viability, T/C [28]: 4.13%; viability, T/C [29]: 0.96%; viability, T/C [30]: 0.26% |
